Results: patent US6737383B1, “Herbicidal oxadiazolidines” (priority 1999, dated 2004)

How the values were obtained:
wheat = test: Test B pre/postemergence wheat; format: in vivo, Triticum aestivum; conditions: for Wheat plant response rating: scale of 0 to 10 where 0 is no effect and 10 is complete control
How it was run: (§1)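 Response is a visual 0-to-10 score relative to untreated plants, where 0 means no effect and 10 means complete control, taken twelve to sixteen days after application. Treatments went onto soil at planting and onto foliage of 1- to 4-leaf plants, using a surfactant-containing non-phytotoxic solvent.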

morningglory = test: Test B pre/postemergence morningglory; format: in vivo, Ipomoea hederacea; conditions: for Morningglory plant response rating: scale of 0 to 10 where 0 is no effect and 10 is complete control
How it was run: as §1

rice = test: Test B flood test rice; format: in vivo, Oryza sativa
How it was run: (§2)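 Read-out is a visual response score from 0 (no effect) to 10 (complete control), assigned by comparison with untreated controls. Treatment was applied at the 2-leaf stage, and plants stayed in the greenhouse for twelve to sixteen days before scoring.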

smallflower flatsedge = test: Test B flood test smallflower flatsedge; format: in vivo, Cyperus difformis
How it was run: as §2

pigweed = test: Test B pre/postemergence pigweed; format: in vivo, Amaranthus retroflexus; conditions: for Redroot pigweed plant response rating: scale of 0 to 10 where 0 is no effect and 10 is complete control
How it was run: as §1

wild oat = test: Test B pre/postemergence wild oat; format: in vivo, Avena fatua; conditions: for Wild oats plant response rating: scale of 0 to 10 where 0 is no effect and 10 is complete control
How it was run: as §1

cocklebur = test: Test B pre/postemergence cocklebur; format: in vivo, Xanthium strumarium; conditions: for Cocklebur plant response rating: scale of 0 to 10 where 0 is no effect and 10 is complete control
How it was run: as §1

purple nutsedge = test: Test B pre/postemergence purple nutsedge; format: in vivo, Cyperus rotundus; conditions: for Nutsedge plant response rating: scale of 0 to 10 where 0 is no effect and 10 is complete control
How it was run: as §1

bedstraw = test: Test B pre/postemergence bedstraw; format: in vivo, Galium aparine; conditions: Preemergence, scale of 0 to 10 where 0 is no effect and 10 is complete control
How it was run: as §1

velvetleaf = test: Test B pre/postemergence velvetleaf; format: in vivo, Abutilon theophrasti; conditions: for Velvetleaf plant response rating: scale of 0 to 10 where 0 is no effect and 10 is complete control
How it was run: as §1

duck salad = test: Test B flood test duck salad; format: in vivo, Heteranthera limosa
How it was run: as §2

corn = test: Test B pre/postemergence corn; format: in vivo, Zea mays; conditions: for Corn plant response rating: scale of 0 to 10 where 0 is no effect and 10 is complete control
How it was run: as §1

crabgrass = test: Test B pre/postemergence crabgrass; format: in vivo, Digitaria sanguinalis; conditions: for Crabgrass plant response rating: scale of 0 to 10 where 0 is no effect and 10 is complete control
How it was run: as §1

soybean = test: Test B pre/postemergence soybean; format: in vivo, Glycine max; conditions: for Soybean plant response rating: scale of 0 to 10 where 0 is no effect and 10 is complete control
How it was run: as §1

giant foxtail = test: Test B pre/postemergence giant foxtail; format: in vivo, Setaria faberii; conditions: for Giant foxtail plant response rating: scale of 0 to 10 where 0 is no effect and 10 is complete control
How it was run: as §1

rape = test: Test B pre/postemergence rape; format: in vivo, Brassica napus; conditions: for Rape plant response rating: scale of 0 to 10 where 0 is no effect and 10 is complete control
How it was run: as §1

[1] = Postemergence, Rate 125 g/ha, scale 0 to 10, 0 is no effect, 10 is complete control
[2] = Preemergence, Rate 62 g/ha, scale 0 to 10 (0 no effect, 10 complete control)
[3] = Rate 500 g/ha, Postemergence, scale 0 to 10, 0 no effect, 10 complete control
[4] = Postemergence (flood test), Rate 125 g/ha, scale 0 to 10, 0 is no effect, 10 is complete control
[5] = Rate 62 g/ha, Postemergence (flood test species), scale of 0 to 10 where 0 is no effect and 10 is complete control
[6] = Rate 62 g/ha, flood test species, Pre-emergence, visual evaluation after twelve to sixteen days
[7] = Rate 125 g/ha, Pre-emergence, flood test species, scale 0 to 10 where 0 is no effect and 10 is complete control
[8] = Rate 250 g/ha, Pre-emergence, flood-test species, scale 0 to 10, 0 is no effect, 10 is complete control
[9] = Rate 500 g/ha, listed under Postemergence (flood test species), scale 0 to 10, 0 no effect, 10 complete control
[10] = Rate 500 g/ha, Pre-emergence, flood test species, scale 0 to 10 (0 no effect, 10 complete control)

CC(C)N(C(=O)n1oc(=O)n(C2CCC2)c1=O)c1ccc(F)cc1F [Compound 351]
Plant response rating, Wheat (wheat; [1]): 0
Plant response rating, Wheat (wheat; [2]): 0
Wheat plant response rating (0 to 10 scale) (wheat; Preemergence, Rate 125 g/ha): 0
Wheat plant response rating (wheat; Preemergence, Rate 250 g/ha): 0
Wheat plant response rating (wheat; Preemergence, Rate 500 g/ha): 2
Wheat plant response rating (wheat; Rate 62 g/ha, Postemergence): 0
Plant response rating, Wheat (wheat; [3]): 2
Plant response rating, Morningglory (morningglory; [1]): 4
Plant response rating, Morningglory (morningglory; [2]): 0
Morningglory plant response rating (0 to 10 scale) (morningglory; Preemergence, Rate 125 g/ha): 0
Morningglory plant response rating (morningglory; Preemergence, Rate 250 g/ha): 0
Morningglory plant response rating (morningglory; Preemergence, Rate 500 g/ha): 0
Morningglory plant response rating (morningglory; Rate 62 g/ha, Postemergence): 3
Plant response rating, Morningglory (morningglory; [3]): 6
Plant response rating, Rice (rice; [4]): 0
Rice plant response rating (rice; [5]): 0
Plant response rating, Rice (0 to 10 scale, 0 is no effect, 10 is complete control) (rice; [6]): 0
Rice plant response rating (rice; [7]): 0
Rice plant response rating (rice; [8]): 0
Plant response rating, Rice (rice; [9]): 0
Rice plant response rating (rice; [10]): 0
Plant response rating, S. Flatsedge (smallflower flatsedge; [4]): 6
S. Flatsedge plant response rating (smallflower flatsedge; [5]): 0
Plant response rating, S. Flatsedge (0 to 10 scale, 0 is no effect, 10 is complete control) (smallflower flatsedge; [6]): 0
S. Flatsedge plant response rating (smallflower flatsedge; [7]): 0
S. Flatsedge plant response rating (smallflower flatsedge; [8]): 0
Plant response rating, S. Flatsedge (smallflower flatsedge; [9]): 8
S. Flatsedge plant response rating (smallflower flatsedge; [10]): 0
Plant response rating, Redroot pigweed (pigweed; [1]): 0
Plant response rating, Redroot pigweed (pigweed; [2]): 10
Redroot pigweed plant response rating (0 to 10 scale) (pigweed; Preemergence, Rate 125 g/ha): 10
Redroot pigweed plant response rating (pigweed; Preemergence, Rate 250 g/ha): 10
Redroot pigweed plant response rating (pigweed; Preemergence, Rate 500 g/ha): 10
Redroot pigweed plant response rating (pigweed; Rate 62 g/ha, Postemergence): 0
Plant response rating, Redroot pigweed (pigweed; [3]): 7
Plant response rating, Wild oats (wild oat; [1]): 0
Plant response rating, Wild oats (wild oat; [2]): 0
Wild oats plant response rating (0 to 10 scale) (wild oat; Preemergence, Rate 125 g/ha): 0
Wild oats plant response rating (wild oat; Preemergence, Rate 250 g/ha): 2
Wild oats plant response rating (wild oat; Preemergence, Rate 500 g/ha): 4
Wild oats plant response rating (wild oat; Rate 62 g/ha, Postemergence): 0
Plant response rating, Wild oats (wild oat; [3]): 5
Plant response rating, Cocklebur (cocklebur; [1]): 0
Plant response rating, Cocklebur (cocklebur; [2]): 0
Cocklebur plant response rating (0 to 10 scale) (cocklebur; Preemergence, Rate 125 g/ha): 0
Cocklebur plant response rating (cocklebur; Preemergence, Rate 250 g/ha): 0
Cocklebur plant response rating (cocklebur; Preemergence, Rate 500 g/ha): 0
Cocklebur plant response rating (cocklebur; Rate 62 g/ha, Postemergence): 0
Plant response rating, Cocklebur (cocklebur; [3]): 2
Plant response rating, Nutsedge (purple nutsedge; [1]): 0
Plant response rating, Nutsedge (purple nutsedge; [2]): 0
Nutsedge plant response rating (0 to 10 scale) (purple nutsedge; Preemergence, Rate 125 g/ha): 0
Nutsedge plant response rating (purple nutsedge; Preemergence, Rate 250 g/ha): 0
Nutsedge plant response rating (purple nutsedge; Preemergence, Rate 500 g/ha): 9
Nutsedge plant response rating (purple nutsedge; Rate 62 g/ha, Postemergence): 0
Plant response rating, Nutsedge (purple nutsedge; [3]): 0
Bedstraw plant response rating (bedstraw; Rate 250 g/ha): 9
Bedstraw plant response rating (bedstraw; Rate 500 g/ha): 10
Plant response rating, Velvetleaf (velvetleaf; [1]): 0
Plant response rating, Velvetleaf (velvetleaf; [2]): 0
Velvetleaf plant response rating (0 to 10 scale) (velvetleaf; Preemergence, Rate 125 g/ha): 3
Velvetleaf plant response rating (velvetleaf; Preemergence, Rate 250 g/ha): 4
Velvetleaf plant response rating (velvetleaf; Preemergence, Rate 500 g/ha): 5
Velvetleaf plant response rating (velvetleaf; Rate 62 g/ha, Postemergence): 0
Plant response rating, Velvetleaf (velvetleaf; [3]): 6
Plant response rating, Ducksalad (duck salad; [4]): 0
Ducksalad plant response rating (duck salad; [5]): 0
Plant response rating, Ducksalad (0 to 10 scale, 0 is no effect, 10 is complete control) (duck salad; [6]): 0
Ducksalad plant response rating (duck salad; [7]): 0
Ducksalad plant response rating (duck salad; [8]): 0
Plant response rating, Ducksalad (duck salad; [9]): 4
Ducksalad plant response rating (duck salad; [10]): 0
Plant response rating, Corn (corn; [1]): 0
Plant response rating, Corn (corn; [2]): 0
Corn plant response rating (0 to 10 scale) (corn; Preemergence, Rate 125 g/ha): 0
Corn plant response rating (corn; Preemergence, Rate 250 g/ha): 3
Corn plant response rating (corn; Preemergence, Rate 500 g/ha): 6
Corn plant response rating (corn; Rate 62 g/ha, Postemergence): 0
Plant response rating, Corn (corn; [3]): 0
Plant response rating, Crabgrass (crabgrass; [1]): 1
Plant response rating, Crabgrass (crabgrass; [2]): 7
Crabgrass plant response rating (0 to 10 scale) (crabgrass; Preemergence, Rate 125 g/ha): 10
Crabgrass plant response rating (crabgrass; Preemergence, Rate 250 g/ha): 10
Crabgrass plant response rating (crabgrass; Preemergence, Rate 500 g/ha): 10
Crabgrass plant response rating (crabgrass; Rate 62 g/ha, Postemergence): 0
Plant response rating, Crabgrass (crabgrass; [3]): 9
Plant response rating, Soybean (soybean; [1]): 1
Plant response rating, Soybean (soybean; [2]): 0
Soybean plant response rating (0 to 10 scale) (soybean; Preemergence, Rate 125 g/ha): 0
Soybean plant response rating (soybean; Preemergence, Rate 250 g/ha): 0
Soybean plant response rating (soybean; Preemergence, Rate 500 g/ha): 2
Soybean plant response rating (soybean; Rate 62 g/ha, Postemergence): 1
Plant response rating, Soybean (soybean; [3]): 2
Plant response rating, Giant foxtail (giant foxtail; [1]): 7
Plant response rating, Giant foxtail (giant foxtail; [2]): 10
Giant foxtail plant response rating (0 to 10 scale) (giant foxtail; Preemergence, Rate 125 g/ha): 10
Giant foxtail plant response rating (giant foxtail; Preemergence, Rate 250 g/ha): 10
Giant foxtail plant response rating (giant foxtail; Preemergence, Rate 500 g/ha): 10
Giant foxtail plant response rating (giant foxtail; Rate 62 g/ha, Postemergence): 0
Plant response rating, Giant foxtail (giant foxtail; [3]): 9
Plant response rating, Rape (rape; [1]): 0
Plant response rating, Rape (rape; [2]): 0
Rape plant response rating (0 to 10 scale) (rape; Preemergence, Rate 125 g/ha): 3
Rape plant response rating (rape; Preemergence, Rate 250 g/ha): 6
Rape plant response rating (rape; Preemergence, Rate 500 g/ha): 9
Rape plant response rating (rape; Rate 62 g/ha, Postemergence): 0
Plant response rating, Rape (rape; [3]): 5
